We go through eight compounds from ChEMBL document CHEMBL1201862, “PubChem BioAssay data set” (2004).

Test systems include CCRF-CEM; HCT-116; HCT-15; KM12; M14; MCF7; MDA-N; OVCAR-3; OVCAR-5; OVCAR-8; SF-268; SF-295; SF-539; SK-MEL-2; SK-MEL-5; SK-OV-3; SW-620; TK-10; UACC-257; Malme-3M.
Holding throughout (experiment): NCI tumour cell line growth inhibition, 48 h

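Cells were grown in 96-well plates and exposed to each compound for 48 hours at five concentrations; endpoints were interpolated linearly between bracketing concentrations, or set to the highest concentration if not reached. GI50 marks 50% less growth.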 Calls of active or inactive are those of the source. Cut-off read from the data, not from the text of the source: active = GI50 up to about 1.1 µM and inactive = higher.

Take `O=C(O)CCc1nc2c(n1-c1ccccc1)C(=O)c1ccccc1C2=O`: the GI50 in the assay with CCRF-CEM was > 100 µM (inactive); in the assay on HCT-116 it was 50.2 µM (inactive); with HCT-15 it was greater than 100 µM; with KM12 it was > 100 µM (inactive); in the assay with M14, > 100 µM (inactive); in the assay with MCF7, 97.7 µM (inactive). Also, the GI50 in the assay on MDA-N, in the assay with OVCAR-3, with OVCAR-5, with OVCAR-8, in the assay with SF-268 and in the assay with SF-295 was > 100 µM (inactive) in each case. Also, the GI50 with SF-539 was > 100 µM (inactive); in the assay on SK-MEL-2 it was 95.9 µM (inactive); in the assay with SK-MEL-5 it was > 100 µM (inactive); in the assay on SK-OV-3, > 100 µM (inactive); in the assay with SW-620 it was > 100 µM (inactive); in the assay with TK-10, > 100 µM (inactive). In addition, the GI50 with UACC-257 was > 100 µM (inactive).
Take `COc1ccc(-c2nc(-c3cnccn3)n(C/C=C/c3ccccc3)n2)cc1`: the GI50 with CCRF-CEM is > 100 µM (inactive); in the assay on HCT-116, 92.3 µM (inactive); with HCT-15 it was greater than 100 µM; with KM12 it was > 100 µM (inactive); with M14, > 100 µM (inactive); in the assay on MCF7 it was > 100 µM (inactive). Besides, the GI50 in the assay on MDA-N was > 100 µM (inactive); in the assay on OVCAR-3, 40.4 µM (inactive); with OVCAR-5 it was > 100 µM (inactive); with OVCAR-8, 47.9 µM (inactive); in the assay on SF-295, 32.1 µM (inactive); with SF-539, 26.5 µM (inactive). Moreover, the GI50 with SK-MEL-5 was 44.4 µM (inactive); in the assay on SK-OV-3 it was 17.9 µM (inactive); with SW-620, > 100 µM (inactive); in the assay on UACC-257, > 100 µM (inactive).
In the case of `NCc1ccc(O)c(O)c1`, the GI50 with CCRF-CEM is 53 µM (inactive); in the assay with HCT-116, > 100 µM (inactive); with HCT-15, greater than 100 µM; with KM12, > 100 µM (inactive); with M14, > 100 µM (inactive); with MCF7, > 100 µM (inactive). For the same compound, the GI50 is > 100 µM (inactive) with MDA-N; 55.8 µM (inactive) with OVCAR-3; > 100 µM (inactive) with OVCAR-5; > 100 µM (inactive) in the assay with OVCAR-8; > 100 µM (inactive) with SF-295; > 100 µM (inactive) with SF-539. The GI50 with SK-MEL-2, with SK-MEL-5, with SK-OV-3, with SW-620 and in the assay on UACC-257 was > 100 µM (inactive) throughout.
In the case of `COCC[N+](CCNC(=O)c1cccc2c(N)c3cccc(C)c3nc12)(CCOC)Cc1ccc([N+](=O)[O-])cc1`, the GI50 in the assay on CCRF-CEM was 6.15 µM (inactive); in the assay on HCT-116 it was 17.2 µM (inactive); with HCT-15, 41.8 µM; in the assay on KM12 it was 14.5 µM (inactive); in the assay on M14, 29.6 µM (inactive); in the assay with MCF7, 19.4 µM (inactive). For the same compound, the GI50 is 31.1 µM (inactive) in the assay with MDA-N; 16.7 µM (inactive) with OVCAR-3; 30.9 µM (inactive) in the assay on OVCAR-5; 26.6 µM (inactive) with OVCAR-8; 12.4 µM (inactive) in the assay on SF-268; 28.4 µM (inactive) with SF-295. The GI50 with SF-539 is 17.3 µM (inactive); in the assay on SK-MEL-2, 28.8 µM (inactive); in the assay on SK-MEL-5, 4.53 µM (inactive); in the assay on SW-620, 21.1 µM (inactive); in the assay with TK-10, 67.3 µM (inactive); with UACC-257 it was 16.9 µM (inactive).
As for `O=C1Nc2ccccc2/C1=N/Nc1ccc([N+](=O)[O-])cc1[N+](=O)[O-]`, the GI50 with CCRF-CEM is > 100 µM (inactive); in the assay with HCT-116, 17.9 µM (inactive); in the assay on HCT-15, 13.8 µM; in the assay with KM12, 13.6 µM (inactive); with M14, 12.9 µM (inactive); in the assay with MCF7, 8.67 µM (inactive). The GI50 in the assay with MDA-N is 44.3 µM (inactive); with OVCAR-3, 3.13 µM (inactive); in the assay on OVCAR-5 it was 12.6 µM (inactive); with OVCAR-8, 9.59 µM (inactive); in the assay with SF-268, 20.9 µM (inactive); in the assay on SF-295, 8.77 µM (inactive). The GI50 in the assay with SF-539 is 2.48 µM (inactive); in the assay with SK-MEL-5, 10.6 µM (inactive); in the assay on SK-OV-3, 12.1 µM (inactive); with SW-620, > 100 µM (inactive); with TK-10, 9.08 µM (inactive); in the assay with UACC-257, 8.49 µM (inactive).
As to `CC(C)C(C(=O)O)N1C(=O)c2ccccc2C1=O` (stereo not given), the GI50 in the assay on CCRF-CEM was > 100 µM (inactive); in the assay with HCT-116, > 100 µM (inactive); in the assay with HCT-15 it was greater than 100 µM; with KM12 it was > 100 µM (inactive); in the assay on M14 it was > 100 µM (inactive); in the assay on MCF7 it was > 100 µM (inactive). For the same compound, the GI50 with MDA-N, in the assay with Malme-3M, in the assay on OVCAR-3, in the assay with OVCAR-5, in the assay on OVCAR-8 and with SF-268 was > 100 µM (inactive) in each case. Besides, the GI50 was > 100 µM (inactive) with SF-295; 0.18 µM (active) with SK-MEL-2; > 100 µM (inactive) with SK-MEL-5; > 100 µM (inactive) in the assay with SK-OV-3; > 100 µM (inactive) in the assay on SW-620; > 100 µM (inactive) in the assay on TK-10. Besides, in the assay on UACC-257, the GI50 is > 100 µM (inactive).
For `CN(C)C(=C1c2cc([N+](=O)[O-])ccc2-c2ccc([N+](=O)[O-])cc21)N(C)C`, the GI50 in the assay with CCRF-CEM is > 100 µM (inactive); in the assay on HCT-116, > 100 µM (inactive); in the assay with HCT-15, greater than 100 µM; with KM12, > 100 µM (inactive); in the assay with M14, > 100 µM (inactive); with MCF7 it was > 100 µM (inactive). The GI50 in the assay on MDA-N, with Malme-3M, in the assay with OVCAR-3, in the assay with OVCAR-5, in the assay on OVCAR-8 and with SF-268 was > 100 µM (inactive) each time. Further, the GI50 with SF-295, in the assay with SK-MEL-2, with SK-MEL-5, with SK-OV-3, in the assay on SW-620 and in the assay on TK-10 was > 100 µM (inactive) in each case. For the same compound, the GI50 with UACC-257 was > 100 µM (inactive).
Consider `CN(C)Cc1cc(C(=O)/C=C/c2c(F)cccc2Cl)cc(CN(C)C)c1O`, for which the GI50 is 5.13 µM (inactive) with CCRF-CEM; 4.48 µM (inactive) in the assay on HCT-116; 4.34 µM in the assay on HCT-15; 12.8 µM (inactive) in the assay with KM12; 13.2 µM (inactive) in the assay with M14; 3.03 µM (inactive) in the assay with MCF7. Besides, the GI50 with MDA-N was 13 µM (inactive); in the assay on Malme-3M it was 11.8 µM (inactive); in the assay with OVCAR-3, 9.18 µM (inactive); with OVCAR-5 it was 18.4 µM (inactive); in the assay on OVCAR-8 it was 12.4 µM (inactive); with SF-268, 10.1 µM (inactive). Besides, the GI50 in the assay with SF-295 was 11.6 µM (inactive); in the assay with SK-MEL-2, 15.6 µM (inactive); with SK-MEL-5, 15.3 µM (inactive); in the assay with SK-OV-3, 14.1 µM (inactive); in the assay with SW-620 it was 9.57 µM (inactive); in the assay with TK-10, 3.04 µM (inactive). For the same compound, the GI50 in the assay on UACC-257 is 11.4 µM (inactive).
